# Columns and labels:
# [1] = test system: large intestine of a mouse (normal mucosal tissue); test: vital staining of normal mouse large intestine, imaged with confocal or multiphoton laser microscope
# Procedure: (§1) 100 mg of curcumin (Tokyo Kasei, cat. #C2302, purity 97.0%) was suspended in 5 mL of ethanol, and further diluted 10-fold with ethanol. It was mixed with the same amount of glycerin, and further diluted 10-fold with glycerin. The mixture was mixed with the same amount of purified water to obtain a staining solution of curcumin. As for Red #106, its staining solution is obtained by dissolving the powder in saline to the concentration of 1 mg/mL.
# (§2) C57BL/6N mice purchased from Japan SLC, Inc. were used in the tests. All tests were performed on male, 8-week-old mice weighing 20˜25 grams.
# (§3) A multiphoton laser microscope of FVMPE-RS (Olympus) was used with the irradiation wavelength of 800 nm. Laser irradiation was performed at 5.8˜48.2% of its full power output. A confocal laser microscope of FV1000 (Olympus) was used with the irradiation wavelength of 488 nm and 594 nm, wherein the laser irradiation at 488 nm was performed at […] of its full power output, and the laser irradiation at 594 nm was performed at 13˜13.5% of its full power output. The direction of irradiation and staining from serosal or luminal side are described in the figures.
# [2] = test system: large intestine (cancer tumor site) of a colon cancer mouse; test: vital staining of cancer tumor site in large intestine of colon cancer mouse, imaged with laser microscope; type: in vivo
# Procedure: as §1, §2
# Model mice with colon cancer were prepared by intraperitoneally administering 10 mg/kg of azoxymethane (AOM) dissolved in saline 4 times at weekly intervals to C57BL/6N mice.
# as §3
# [3] = five-layer structure of normal large intestine
# [4] = stained from serosa side, confocal laser microscope, FIG. 5c
# [5] = stained and photographed from luminal side, FIG. 11A and 11B
SMILES,"staining of network of capillaries surrounding the glandular structures of epithelial and glandular layers (1) [1, 3]","staining of the smooth muscle in muscle layer (4) [1, 3]","staining of the smooth muscle in muscularis mucosae (2) [1, 3]","staining of the wall of a thick blood vessel inside muscle layer [1, 3]","staining of Auerbach's plexus inside muscle layer [1, 3]","staining of glandular cells in epithelial and glandular layers (1) [1, 3]","staining of nerve fibers of Auerbach's plexus [1, 4]","staining of perikaryon of Auerbach's plexus [1, 4]","staining of cytoplasm of invaded cancer cells inside smooth muscle layer relative to surrounding tissues ([2]; stained and observed from serosal side, confocal laser microscope, FIG. 10A)","staining of cytoplasm of cancer cells [2, 5]","staining of nuclei of cancer cells [2, 5]"
CCN(CC)c1ccc2c(-c3ccc(S(=O)(=O)[O-])cc3S(=O)(=O)[O-])c3ccc(=[N+](CC)CC)cc-3oc2c1.[Na+] [Red #106],severely positive,mildly positive,mildly positive,severely positive,–,–,–,–,–,–,–
COc1cc(/C=C/C(=O)CC(=O)/C=C/c2ccc(O)c(OC)c2)ccc1O [curcumin],–,mildly positive,severely positive,–,severely positive,severely positive,lightly,darkly,darker than surrounding tissues,stained severely,stained negatively
